# How the values were obtained:
# Assay type in all cases: in vivo
# [1] = tested on: pigweed (Amaranthus retroflexus); experiment: Test A preemergence, pigweed; conditions: for Pigweed plant response rating: visual injury on 0 to 100 scale (0 no effect, 100 complete control), approximately 10 days; for Plant response rating, Pigweed: 0 to 100 scale (0 no effect, 100 complete control)
# In short: (§1)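 Pots: loam soil/sand blend. Pre: directed soil spray at planting. Post: plants 2–10 cm, 1–2 leaf stage. Formulation: non-phytotoxic solvent + surfactant.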
# [2] = tested on: corn (Zea mays); experiment: Test A postemergence, corn; conditions: Postemergence, 0 to 100 scale (0 no effect, 100 complete control); for Plant response rating, Corn: 125 g ai/ha; for Corn plant response rating: 500 g ai/ha, visual injury vs untreated controls after approx. 10 days
# In short: (§2)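 Formulated with a surfactant in a non-phytotoxic solvent, compounds are applied to loam–sand pots, either to bare soil immediately after seeding (preemergence) or to seedlings of 2 to 10 cm bearing one to two leaves (postemergence).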
# [3] = tested on: Ryegrass, Italian (Italian ryegrass, Lolium multiflorum); experiment: Test A preemergence, Ryegrass, Italian; conditions: Preemergence; for Ryegrass, Italian plant response rating: visual injury on 0 to 100 scale (0 no effect, 100 complete control), approximately 10 days; for Plant response rating, Ryegrass, Italian: 0 to 100 scale (0 no effect, 100 complete control)
# In short: as §2
# [4] = tested on: kochia (Bassia scoparia); experiment: Test A postemergence, kochia; conditions: Postemergence, 0 to 100 scale (0 no effect, 100 complete control); for Plant response rating, Kochia: 125 g ai/ha; for Kochia plant response rating: 500 g ai/ha, visual injury vs untreated controls after approx. 10 days
# In short: as §2
# [5] = tested on: ragweed (common ragweed, Ambrosia artemisiifolia); experiment: Test A preemergence, ragweed; conditions: Preemergence; for Ragweed plant response rating: visual injury on 0 to 100 scale (0 no effect, 100 complete control), approximately 10 days; for Plant response rating, Ragweed: 0 to 100 scale (0 no effect, 100 complete control)
# In short: as §2
# [6] = tested on: blackgrass (Alopecurus myosuroides); experiment: Test A postemergence, blackgrass; conditions: Postemergence, 0 to 100 scale (0 no effect, 100 complete control); for Plant response rating, Blackgrass: 125 g ai/ha; for Blackgrass plant response rating: 500 g ai/ha, visual injury vs untreated controls after approx. 10 days
# In short: as §2
# [7] = tested on: barnyardgrass (Echinochloa crus-galli); experiment: Test A postemergence, barnyardgrass; conditions: Postemergence, 0 to 100 scale (0 no effect, 100 complete control); for Plant response rating, Barnyardgrass: 125 g ai/ha; for Barnyardgrass plant response rating: 500 g ai/ha, visual injury vs untreated controls after approx. 10 days
# In short: as §1
# [8] = tested on: pigweed (Amaranthus retroflexus); experiment: Test A postemergence, pigweed; conditions: Postemergence, 0 to 100 scale (0 no effect, 100 complete control); for Plant response rating, Pigweed: 125 g ai/ha; for Pigweed plant response rating: 500 g ai/ha, visual injury vs untreated controls after approx. 10 days
# In short: as §2
# [9] = tested on: galium (catchweed bedstraw, Galium aparine); experiment: Test A postemergence, galium; conditions: Postemergence, 0 to 100 scale (0 no effect, 100 complete control); for Plant response rating, Galium: 125 g ai/ha; for Galium plant response rating: 500 g ai/ha, visual injury vs untreated controls after approx. 10 days
# In short: as §1
# [10] = tested on: Foxtail, Giant (giant foxtail, Setaria faberi); experiment: Test A preemergence, Foxtail, Giant; conditions: Preemergence; for Foxtail, Giant plant response rating: visual injury on 0 to 100 scale (0 no effect, 100 complete control), approximately 10 days; for Plant response rating, Foxtail, Giant: 0 to 100 scale (0 no effect, 100 complete control)
# In short: as §2
# [11] = tested on: wheat (Triticum aestivum); experiment: Test A postemergence, wheat; conditions: Postemergence, 0 to 100 scale (0 no effect, 100 complete control); for Plant response rating, Wheat: 125 g ai/ha; for Wheat plant response rating: 500 g ai/ha, visual injury vs untreated controls after approx. 10 days
# In short: as §1
# [12] = tested on: kochia (Bassia scoparia); experiment: Test A preemergence, kochia; conditions: Preemergence; for Kochia plant response rating: visual injury on 0 to 100 scale (0 no effect, 100 complete control), approximately 10 days; for Plant response rating, Kochia: 0 to 100 scale (0 no effect, 100 complete control)
# In short: as §2
# [13] = tested on: barnyardgrass (Echinochloa crus-galli); experiment: Test A preemergence, barnyardgrass; conditions: Preemergence; for Barnyardgrass plant response rating: visual injury on 0 to 100 scale (0 no effect, 100 complete control), approximately 10 days; for Plant response rating, Barnyardgrass: 0 to 100 scale (0 no effect, 100 complete control)
# In short: as §2
# [14] = tested on: Foxtail, Giant (giant foxtail, Setaria faberi); experiment: Test A postemergence, Foxtail, Giant; conditions: Postemergence, 0 to 100 scale (0 no effect, 100 complete control); for Plant response rating, Foxtail, Giant: 125 g ai/ha; for Foxtail, Giant plant response rating: 500 g ai/ha, visual injury vs untreated controls after approx. 10 days
# In short: as §2
# [15] = tested on: Ryegrass, Italian (Italian ryegrass, Lolium multiflorum); experiment: Test A postemergence, Ryegrass, Italian; conditions: Postemergence, 0 to 100 scale (0 no effect, 100 complete control); for Plant response rating, Ryegrass, Italian: 125 g ai/ha; for Ryegrass, Italian plant response rating: 500 g ai/ha, visual injury vs untreated controls after approx. 10 days
# In short: as §2
# [16] = tested on: ragweed (common ragweed, Ambrosia artemisiifolia); experiment: Test A postemergence, ragweed; conditions: Postemergence, 0 to 100 scale (0 no effect, 100 complete control); for Plant response rating, Ragweed: 125 g ai/ha; for Ragweed plant response rating: 500 g ai/ha, visual injury vs untreated controls after approx. 10 days
# In short: as §2
# [17] = 125 g ai/ha, visual injury, approx. 10 days
Structure (SMILES),Pigweed plant response rating ([1]; 125 g ai/ha),"Plant response rating, Pigweed ([1]; 500 g ai/ha)","Plant response rating, Corn ([2]; visual injury approx. 10 days)",Corn plant response rating [2],"Ryegrass, Italian plant response rating ([3]; 125 g ai/ha)","Plant response rating, Ryegrass, Italian ([3]; 500 g ai/ha)","Plant response rating, Kochia ([4]; visual injury approx. 10 days)",Kochia plant response rating [4],"Plant response rating, Ragweed ([5]; 500 g ai/ha)",Blackgrass plant response rating [6],Barnyardgrass plant response rating [7],Pigweed plant response rating [8],Galium plant response rating [9],"Plant response rating, Foxtail, Giant ([10]; 500 g ai/ha)",Wheat plant response rating [11],"Plant response rating, Kochia ([12]; 500 g ai/ha)","Plant response rating, Barnyardgrass ([13]; 500 g ai/ha)","Foxtail, Giant plant response rating [14]","Ryegrass, Italian plant response rating [15]",Ragweed plant response rating [16],further results
COC1(OC)CCN(C(=O)c2cc(NS(=O)(=O)C(F)(F)F)c(C)cc2C)CC1 [Compound 101],90,90,20,30,80,100,10,30,80,20,90,90,90,100,60,90,100,80,70,70,"Ragweed plant response rating ([5]; 125 g ai/ha): 60; Plant response rating, Blackgrass ([6]; visual injury approx. 10 days): 20; Plant response rating, Barnyardgrass ([7]; visual injury approx. 10 days): 80; Plant response rating, Pigweed ([8]; visual injury approx. 10 days): 70; Plant response rating, Galium ([9]; visual injury approx. 10 days): 80; Foxtail, Giant plant response rating ([10]; 125 g ai/ha): 90; Plant response rating, Wheat ([11]; visual injury approx. 10 days): 0; Kochia plant response rating ([12]; 125 g ai/ha): 60; Barnyardgrass plant response rating ([13]; 125 g ai/ha): 100; Plant response rating, Foxtail, Giant ([14]; visual injury approx. 10 days): 0; Plant response rating, Ryegrass, Italian ([15]; visual injury approx. 10 days): 60; Plant response rating, Ragweed ([16]; visual injury approx. 10 days): 50"
Cc1cc(F)c(C(=O)N2CCCCC2)cc1N(S(=O)(=O)C(F)(F)F)S(=O)(=O)C(F)(F)F [Compound 212],,90,,10,,70,,70,30,0,0,60,70,90,0,90,90,20,50,20,"Plant response rating, Pigweed [1, 17]: 90; Plant response rating, Corn [2]: 0; Plant response rating, Ryegrass, Italian [3, 17]: 30; Plant response rating, Kochia [4]: 20; Plant response rating, Ragweed [5, 17]: 0; Plant response rating, Blackgrass [6]: 0; Plant response rating, Barnyardgrass [7]: 0; Plant response rating, Pigweed [8]: 20; Plant response rating, Galium [9]: 50; Plant response rating, Foxtail, Giant [10, 17]: 20; Plant response rating, Wheat [11]: 0; Plant response rating, Kochia [12, 17]: 30; Plant response rating, Barnyardgrass [13, 17]: 0; Plant response rating, Foxtail, Giant [14]: 0; Plant response rating, Ryegrass, Italian [15]: 0; Plant response rating, Ragweed [16]: 20"
CSC(=O)N(c1cc(C2=NOC3(CCCC3)C2)c(C)cc1C)S(=O)(=O)C(F)(F)F [Compound 219],,60,,0,,60,,60,0,0,70,70,70,90,0,40,100,20,50,50,"Plant response rating, Pigweed [1, 17]: 40; Plant response rating, Corn [2]: 0; Plant response rating, Ryegrass, Italian [3, 17]: 50; Plant response rating, Kochia [4]: 30; Plant response rating, Ragweed [5, 17]: 0; Plant response rating, Blackgrass [6]: 0; Plant response rating, Barnyardgrass [7]: 0; Plant response rating, Pigweed [8]: 40; Plant response rating, Galium [9]: 50; Plant response rating, Foxtail, Giant [10, 17]: 50; Plant response rating, Wheat [11]: 0; Plant response rating, Kochia [12, 17]: 20; Plant response rating, Barnyardgrass [13, 17]: 0; Plant response rating, Foxtail, Giant [14]: 0; Plant response rating, Ryegrass, Italian [15]: 20; Plant response rating, Ragweed [16]: 20"
Cc1c(NS(=O)(=O)C(F)(F)F)cc(C(=O)N2CCC(F)CC2)c(C)c1F [Compound 109],100,100,0,40,70,80,10,40,90,10,70,80,90,100,70,100,100,40,60,80,"Ragweed plant response rating ([5]; 125 g ai/ha): 90; Plant response rating, Blackgrass ([6]; visual injury approx. 10 days): 10; Plant response rating, Barnyardgrass ([7]; visual injury approx. 10 days): 0; Plant response rating, Pigweed ([8]; visual injury approx. 10 days): 50; Plant response rating, Galium ([9]; visual injury approx. 10 days): 80; Foxtail, Giant plant response rating ([10]; 125 g ai/ha): 100; Plant response rating, Wheat ([11]; visual injury approx. 10 days): 30; Kochia plant response rating ([12]; 125 g ai/ha): 90; Barnyardgrass plant response rating ([13]; 125 g ai/ha): 90; Plant response rating, Foxtail, Giant ([14]; visual injury approx. 10 days): 0; Plant response rating, Ryegrass, Italian ([15]; visual injury approx. 10 days): 40; Plant response rating, Ragweed ([16]; visual injury approx. 10 days): 70"
